Several values for one entry are separate records, joined by “and”; a condition that tells them apart may be missing. Equal values may be shown once. Read-outs that look alike come from different tables or passages of the source.
Legend:
CDK8/19 = test: Cell-based QPCR assay of CDK8/19-dependent gene expression, HEK293 parental (WT) cells; design: species or system human
Experimental: All cells were cultured in DMEM (high-glucose) media supplemented with 10% fetal bovine serum (FBS) and Penicillin-Streptomycin-Glutamine (1×) at 37 °C with 5% CO2 and routinely confirmed to be free of mycoplasma.
(§5) Total RNA was extracted using RNAeasy Mini Kit (Qiagen, Germantown, MD, USA) and 1 µg of total RNA was used to generate cDNA using iScript cDNA synthesis kit (Bio-Rad Laboratories, Hercules, CA, USA). Gene expression was quantified using iTaq Universal SYBR green super mix using CFX384 Real-Time System (Bio-Rad).
The IC50 values for different inhibitors in inhibiting CDK8/19-dependent gene expression were calculated using a three-parameter least square (ordinary) fitting method with GraphPad Prism 7.0 (GraphPad Software, San Diego, CA, USA).
(§6) Cells were pre-treated with different concentrations of CDK8/19 inhibitors for 1 h and then 10 ng/mL TNFα, an inducer of transcription factor NFκB, which is potentiated by CDK8/19 [5], was added for 2 h before RNA extraction. QPCR was carried out to quantify CDK8/19-regulated expression of NFκB-inducible genes CXCL1 and CXCL8 and the basal expression of MYC.

MAP4K2 = biological target: T1, MAP4K2 (Homo sapiens, UniProt Q12851); test: KdELECT Kd determination, MAP4K2; settings: 11-point 3-fold serial dilution, duplicate; read-out: Kd for the inhibition of nucleotide binding, MAP4K2
T1 construct: purchased DiscoverX
T1 sequence (Q12851 1-820): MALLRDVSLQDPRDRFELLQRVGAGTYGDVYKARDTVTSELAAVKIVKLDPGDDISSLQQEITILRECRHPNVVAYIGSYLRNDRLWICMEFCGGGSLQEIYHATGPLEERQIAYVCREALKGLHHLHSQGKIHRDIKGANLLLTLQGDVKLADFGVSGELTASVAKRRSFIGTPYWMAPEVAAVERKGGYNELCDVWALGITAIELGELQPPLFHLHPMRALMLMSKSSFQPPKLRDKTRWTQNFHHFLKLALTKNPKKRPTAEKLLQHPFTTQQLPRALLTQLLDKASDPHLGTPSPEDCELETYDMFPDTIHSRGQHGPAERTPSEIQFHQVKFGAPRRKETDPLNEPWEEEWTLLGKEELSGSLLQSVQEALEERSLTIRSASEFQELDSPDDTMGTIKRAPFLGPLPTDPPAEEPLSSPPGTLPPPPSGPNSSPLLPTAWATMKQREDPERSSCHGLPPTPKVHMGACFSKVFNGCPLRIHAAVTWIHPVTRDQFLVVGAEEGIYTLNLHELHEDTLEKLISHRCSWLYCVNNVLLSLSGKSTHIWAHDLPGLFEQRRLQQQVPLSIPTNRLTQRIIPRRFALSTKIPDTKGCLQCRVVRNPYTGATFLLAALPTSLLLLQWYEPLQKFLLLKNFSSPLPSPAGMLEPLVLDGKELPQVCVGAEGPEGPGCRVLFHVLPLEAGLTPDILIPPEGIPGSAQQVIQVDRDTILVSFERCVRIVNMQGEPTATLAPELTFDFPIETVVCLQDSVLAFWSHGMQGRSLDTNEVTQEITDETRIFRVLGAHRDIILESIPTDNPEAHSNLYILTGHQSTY
Experimental: (§1) The screening platform employs an active site-directed competition binding assay to quantitatively measure interactions between test compounds and targeting kinases. […] To determine dissociation constants (Kds) of compounds on different targets, an 11-point 3-fold serial dilution of each test compound was tested in independent duplicate assays.
(§2) This assay has been previously used with many CDK8/19 inhibitors, including cortistatin A and its equipotent analog dCA [20, 21]; 15w.

STK16 = biological target: T2, STK16 (Homo sapiens, UniProt O75716); test: KdELECT Kd determination, STK16; settings: 11-point 3-fold serial dilution, duplicate; read-out: Kd for the inhibition of nucleotide binding, STK16
T2 construct: purchased DiscoverX
Experimental: as §1, §2

JNK1 (MAPK8) = biological target: T3, JNK1 (MAPK8) (Homo sapiens, UniProt P45983); test: KdELECT Kd determination, JNK1; settings: 11-point 3-fold serial dilution, duplicate; read-out: Kd for the inhibition of nucleotide binding, JNK1 (MAPK8)
T3 construct: purchased DiscoverX
Experimental: as §1, §2

GSK3A = biological target: T4, GSK3A (Homo sapiens, UniProt P49840); test: KdELECT Kd determination, GSK3A; settings: 11-point 3-fold serial dilution, duplicate; read-out: Kd for the inhibition of nucleotide binding, GSK3A
T4 construct: purchased DiscoverX
Experimental: as §1, §2

[1] = system: STAT1 S727 phosphorylation; test: Western blot of STAT1 S727 phosphorylation in NIH 3T3 cells; assay type: cell-based, murine; settings: 1 μM
Experimental: (§3) Cells were cultured in 60-mm dishes and treated under different conditions before being lysed in RIPA lysis buffer with protease/phosphatase inhibitor cocktail. The protein concentration of extracts was determined using the DC protein assay (Bio-Rad Laboratories). Protein samples (50 μg) were resolved on 4–12% Express-Plus PAGE gels in Tris-MOPS (SDS) running buffer (GenScript, Piscataway, NJ, USA), transferred to PVDF membranes and incubated at 4 °C overnight with primary antibodies STAT1 (sc-592, Santa Cruz Biotechnology, Dallas, TX, USA) and pSTAT1-Ser727 (#8826, Cell Signaling Technology, Danvers, MA, USA) followed by anti-rabbit (NA934, GE Healthcare, Chicago, IL, USA) secondary antibodies. Bands were visualized with Western Lighting Plus ECL detection reagent (Perkin Elmer, Waltham, MA, USA) using ChemiDoc Touch™ (Bio-Rad). Images were analyzed using ImageLab (Bio-Rad) and ImageJ (version 1.52p) software for protein signal quantification.

[2] = system: STAT1 S727 phosphorylation; test: Western blot of STAT1 S727 phosphorylation in 293-WT cells; assay type: cell-based, human; settings: 1 μM
Experimental: as §3

[3] = system: STAT1 S727 phosphorylation; test: Basal STAT1 S727 phosphorylation in rat neurons in culture; assay type: cell-based; settings: not shown
[4] = system: STAT1 S727 phosphorylation; design: method as in patent application US 2017/0115308A1; settings: ref patent application US 2017/0115308A1; cited from earlier work
CDK8 [5] = biological target: T5, CDK8 (Homo sapiens, UniProt P49336); test: KdELECT Kd determination, CDK8; assay type: binding; design: purchased DiscoverX
Experimental: (§4) To determine dissociation constants (Kds) of compounds on different targets, an 11-point 3-fold serial dilution of each test compound was tested in independent duplicate assays.
Target sequence in this assay (P49336 whole entry): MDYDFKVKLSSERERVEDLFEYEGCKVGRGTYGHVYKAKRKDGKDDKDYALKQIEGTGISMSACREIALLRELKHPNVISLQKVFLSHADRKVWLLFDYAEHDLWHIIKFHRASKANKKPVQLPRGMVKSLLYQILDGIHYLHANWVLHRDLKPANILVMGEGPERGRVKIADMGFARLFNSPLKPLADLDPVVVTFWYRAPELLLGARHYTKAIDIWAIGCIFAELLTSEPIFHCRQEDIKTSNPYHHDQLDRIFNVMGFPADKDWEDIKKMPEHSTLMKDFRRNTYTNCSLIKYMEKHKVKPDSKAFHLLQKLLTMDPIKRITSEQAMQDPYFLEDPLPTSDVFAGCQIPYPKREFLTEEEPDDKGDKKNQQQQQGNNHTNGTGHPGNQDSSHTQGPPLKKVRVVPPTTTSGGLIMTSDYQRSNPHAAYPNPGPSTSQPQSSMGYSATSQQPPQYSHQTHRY

PIKFYVE = PIKFYVE (Homo sapiens, UniProt Q9Y2I7); test: KdELECT Kd determination, PIKFYVE; design: purchased DiscoverX; settings: 11-point 3-fold serial dilution, duplicate; read-out: Kd for the inhibition of nucleotide binding, PIKFYVE
Experimental: as §1, §2

CDK8 [6] = biological target: T5, CDK8; test: Cell-based QPCR assay of CDK8/19-dependent gene expression, HEK293 CDK19 single-knockout (19KO) cells; design: CDK19 single-knockout (19KO); endogenous in cells; host or cells: HEK293 CDK19 knockout (19KO); settings: HEK293 19KO, 1 h pre-treatment, then 10 ng/mL TNFα 2 h
Target sequence in this assay (P49336 whole entry): as above
Target sequence in this assay (P24863 whole entry partner): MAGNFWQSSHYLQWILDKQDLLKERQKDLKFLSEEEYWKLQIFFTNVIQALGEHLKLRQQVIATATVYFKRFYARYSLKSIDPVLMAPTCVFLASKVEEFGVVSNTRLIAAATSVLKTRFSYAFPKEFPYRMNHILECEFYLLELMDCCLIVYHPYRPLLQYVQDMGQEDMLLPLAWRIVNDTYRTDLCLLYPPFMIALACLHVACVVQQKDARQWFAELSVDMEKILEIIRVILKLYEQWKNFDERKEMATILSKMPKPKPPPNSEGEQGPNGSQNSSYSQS
Experimental: (§7) CDK8/CDK19 single knockout and double knockout derivatives of human embryonic kidney (HEK) 293 cells (ATCC CRL-1573) were generated as previously described [18]. All cells were cultured in DMEM (high-glucose) media supplemented with 10% fetal bovine serum (FBS) and Penicillin-Streptomycin-Glutamine (1×) at 37 °C with 5% CO2 and routinely confirmed to be free of mycoplasma.
as §5
(§8) The IC50 values for different inhibitors in inhibiting CDK8/19-dependent gene expression were calculated using a three-parameter least square (ordinary) fitting method with GraphPad Prism 7.0 (GraphPad Software, San Diego, CA, USA). The Kruskal–Wallis non-parametric ANOVA was used to compare gene expression levels under no-inhibitor conditions between wild-type cells and knockout derivatives (8KO, 19KO and dKO) with GraphPad Prism 7.0.
as §6

[7] = system: dechorionated zebrafish embryos (Danio rerio, AB strain); test: Zebrafish toxicity assay, mechanically dechorionated embryos (AB strain); assay type: in vivo; settings: 1 μM; starting after 72 hpt
Experimental: The toxicity screen using dechorionated zebrafish embryos (Danio rerio, AB strain) was performed by Arkana Laboratories, Little Rock, AR, as a service. The toxicity of different CDK8/19 inhibitors was evaluated in sterile 96-well plates with U-shaped bottoms. 12 wells (i.e., biological replicates) per test chemical and the vehicle control (0.1% DMSO) were used and the experiment was performed in triplicate. Treatment was performed via addition of 20 µL of 10× concentrations of each tested compound in 1% DMSO-containing egg water to each well containing one 24 hpf (hours post fertilization) mechanically-dechorionated embryo in 180 µL volume of egg water (i.e., 0.1% final DMSO concentration). The fish embryos cultured at 28.5 °C were examined at 24, 48, 72 and 96 h post treatment (hpt) and scored as “healthy”, “abnormal” or “dead”. Phenotypes observed and assessed as abnormal included: cardiac edema (intermediate and severe stages), overall edema, enlarged head, malformation of the eyes, curved body axis, shortened body axis and malformation of the tail. […] Positive control 3,4-dichloroaniline (3,4-DCA) was tested at 8 mg/L.

[8] = system: non-dechorionated embryos of zebrafish TU strain; test: Zebrafish toxicity assay, non-dechorionated embryos (TU strain); assay type: in vivo; settings: all the tested concentrations (0.5 μM, 1 μM and 2 μM); 3-5 days
Experimental: The toxicity studies in non-dechorionated embryos of zebrafish TU strain were approved by the Institutional Animal Care and Use Committee of the University of South Carolina. The studies were conducted in sterile 24-well plates with one 24 hpf embryo in each well in a 1 mL volume of egg water. For each plate, 6 wells were treated with vehicle control and the other 18 wells (i.e., biological replicates) were treated with different CDK8/19 inhibitors at different concentrations. […] All the data from the plates with at least five healthy vehicle-treated embryos on day 5 were compiled together for final data analysis.

GSK3B = biological target: T6, GSK3B (Homo sapiens, UniProt P49841); test: KdELECT Kd determination, GSK3B; settings: 11-point 3-fold serial dilution, duplicate; read-out: Kd for the inhibition of nucleotide binding, GSK3B
T6 construct: purchased DiscoverX
Experimental: as §4

GSK3β = biological target: T7, GSK3β (Homo sapiens, UniProt P49841); test: ADP-Glo Kinase Assay, GSK3β kinase activity; assay type: biochemical; settings: 25 μM ATP, 60 min, room temperature
T7 construct: purchased Promega
Experimental: Effects of different compounds on GSK3β kinase activity were evaluated using ADP-Glo^TM Kinase Assay kit and GSK3β Kinase Enzyme System (Promega, Madison, WI, USA). Kinase reactions were carried out at room temperature for 60 min. Each reaction contained 1 ng GSK3β enzyme, 25 μM ATP, 0.2 μg/μL GSK3 substrate and test compounds at different concentrations. Equal volume of ADP-Glo reagent was then added to kinase reaction and incubated at room temperature for 40 min, followed by the addition of Kinase Detection Reagent and incubation at room temperature for another 20 min. Bioluminescence signals were measured in 384-well plates using ChemiDoc Touch™ (Bio-Rad) and ImageLab software (Bio-Rad, Version 5.2.1 build 11). Effects of inhibitors were presented as relative kinase activity, calculated from […].

[9] = design: method as in PMID 27935476; settings: colon cancer and leukemia mouse xenograft models; cited from earlier work
rats = settings: cited from earlier work
dogs = settings: cited from earlier work
CDK19 [10] = biological target: T8, CDK19 (Homo sapiens, UniProt Q9BWU1); test: KdELECT Kd determination, CDK19; assay type: binding; design: purchased DiscoverX
Experimental: as §4
Target sequence in this assay (Q9BWU1 whole entry): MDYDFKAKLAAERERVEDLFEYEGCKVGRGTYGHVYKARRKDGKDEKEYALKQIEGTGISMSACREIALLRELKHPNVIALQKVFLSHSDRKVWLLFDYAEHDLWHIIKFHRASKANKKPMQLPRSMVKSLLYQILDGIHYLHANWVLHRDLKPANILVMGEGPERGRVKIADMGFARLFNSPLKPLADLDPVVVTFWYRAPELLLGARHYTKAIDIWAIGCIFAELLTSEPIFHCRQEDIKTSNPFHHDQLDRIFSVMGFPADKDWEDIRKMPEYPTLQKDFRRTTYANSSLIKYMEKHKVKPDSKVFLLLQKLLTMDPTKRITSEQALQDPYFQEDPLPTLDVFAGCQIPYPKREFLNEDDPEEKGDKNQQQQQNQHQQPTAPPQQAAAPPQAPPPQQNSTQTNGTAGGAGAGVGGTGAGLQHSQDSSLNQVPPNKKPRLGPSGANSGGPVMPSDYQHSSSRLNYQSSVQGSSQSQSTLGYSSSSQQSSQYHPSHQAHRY

CDK19 [11] = biological target: T8, CDK19; test: Cell-based QPCR assay of CDK8/19-dependent gene expression, HEK293 CDK8 single-knockout (8KO) cells; design: CDK8 single-knockout (8KO); endogenous in cells; host or cells: HEK293 CDK8 knockout (8KO); settings: 8KO, HEK293 8KO, 1 h pre-treatment, then 10 ng/mL TNFα 2 h
Target sequence in this assay (Q9BWU1 whole entry): as above
Target sequence in this assay (P24863 whole entry partner): as the sequence (P24863 whole entry partner) above
Experimental: as §7, §5, §8, §6

T4 sequence (P49840 whole entry): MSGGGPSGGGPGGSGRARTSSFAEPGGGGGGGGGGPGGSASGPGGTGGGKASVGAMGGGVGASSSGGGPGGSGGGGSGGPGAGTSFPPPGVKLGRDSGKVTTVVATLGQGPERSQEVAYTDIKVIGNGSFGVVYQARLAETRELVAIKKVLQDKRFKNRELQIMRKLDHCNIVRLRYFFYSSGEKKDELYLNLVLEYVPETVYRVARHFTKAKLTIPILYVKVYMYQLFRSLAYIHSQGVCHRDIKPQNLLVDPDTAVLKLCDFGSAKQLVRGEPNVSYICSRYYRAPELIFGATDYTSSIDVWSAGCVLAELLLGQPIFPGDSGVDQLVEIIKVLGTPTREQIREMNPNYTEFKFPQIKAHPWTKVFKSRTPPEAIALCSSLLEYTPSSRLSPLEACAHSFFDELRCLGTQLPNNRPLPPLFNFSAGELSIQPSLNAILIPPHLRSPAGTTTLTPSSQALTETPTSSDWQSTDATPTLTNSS
T7 sequence (P49841 whole entry): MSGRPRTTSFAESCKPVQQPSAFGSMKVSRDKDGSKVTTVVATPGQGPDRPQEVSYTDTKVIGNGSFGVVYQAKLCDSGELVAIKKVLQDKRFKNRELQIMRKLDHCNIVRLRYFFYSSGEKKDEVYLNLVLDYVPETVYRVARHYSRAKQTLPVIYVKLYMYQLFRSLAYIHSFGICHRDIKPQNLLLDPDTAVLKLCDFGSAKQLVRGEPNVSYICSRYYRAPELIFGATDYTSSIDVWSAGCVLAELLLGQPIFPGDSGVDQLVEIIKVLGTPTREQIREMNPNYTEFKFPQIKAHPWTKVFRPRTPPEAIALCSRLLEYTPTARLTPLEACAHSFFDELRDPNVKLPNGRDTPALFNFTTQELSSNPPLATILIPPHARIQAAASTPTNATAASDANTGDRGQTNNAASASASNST
T2 sequence (O75716 whole entry): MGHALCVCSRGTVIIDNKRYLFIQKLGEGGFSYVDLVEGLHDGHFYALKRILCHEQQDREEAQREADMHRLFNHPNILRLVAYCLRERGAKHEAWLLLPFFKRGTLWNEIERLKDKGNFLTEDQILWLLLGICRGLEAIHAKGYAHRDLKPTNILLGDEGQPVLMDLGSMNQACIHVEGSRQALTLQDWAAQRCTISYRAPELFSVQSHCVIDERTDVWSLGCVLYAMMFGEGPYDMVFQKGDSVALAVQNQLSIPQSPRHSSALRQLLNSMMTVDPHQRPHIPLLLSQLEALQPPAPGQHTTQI
PIKFYVE, sequence (Q9Y2I7 whole entry): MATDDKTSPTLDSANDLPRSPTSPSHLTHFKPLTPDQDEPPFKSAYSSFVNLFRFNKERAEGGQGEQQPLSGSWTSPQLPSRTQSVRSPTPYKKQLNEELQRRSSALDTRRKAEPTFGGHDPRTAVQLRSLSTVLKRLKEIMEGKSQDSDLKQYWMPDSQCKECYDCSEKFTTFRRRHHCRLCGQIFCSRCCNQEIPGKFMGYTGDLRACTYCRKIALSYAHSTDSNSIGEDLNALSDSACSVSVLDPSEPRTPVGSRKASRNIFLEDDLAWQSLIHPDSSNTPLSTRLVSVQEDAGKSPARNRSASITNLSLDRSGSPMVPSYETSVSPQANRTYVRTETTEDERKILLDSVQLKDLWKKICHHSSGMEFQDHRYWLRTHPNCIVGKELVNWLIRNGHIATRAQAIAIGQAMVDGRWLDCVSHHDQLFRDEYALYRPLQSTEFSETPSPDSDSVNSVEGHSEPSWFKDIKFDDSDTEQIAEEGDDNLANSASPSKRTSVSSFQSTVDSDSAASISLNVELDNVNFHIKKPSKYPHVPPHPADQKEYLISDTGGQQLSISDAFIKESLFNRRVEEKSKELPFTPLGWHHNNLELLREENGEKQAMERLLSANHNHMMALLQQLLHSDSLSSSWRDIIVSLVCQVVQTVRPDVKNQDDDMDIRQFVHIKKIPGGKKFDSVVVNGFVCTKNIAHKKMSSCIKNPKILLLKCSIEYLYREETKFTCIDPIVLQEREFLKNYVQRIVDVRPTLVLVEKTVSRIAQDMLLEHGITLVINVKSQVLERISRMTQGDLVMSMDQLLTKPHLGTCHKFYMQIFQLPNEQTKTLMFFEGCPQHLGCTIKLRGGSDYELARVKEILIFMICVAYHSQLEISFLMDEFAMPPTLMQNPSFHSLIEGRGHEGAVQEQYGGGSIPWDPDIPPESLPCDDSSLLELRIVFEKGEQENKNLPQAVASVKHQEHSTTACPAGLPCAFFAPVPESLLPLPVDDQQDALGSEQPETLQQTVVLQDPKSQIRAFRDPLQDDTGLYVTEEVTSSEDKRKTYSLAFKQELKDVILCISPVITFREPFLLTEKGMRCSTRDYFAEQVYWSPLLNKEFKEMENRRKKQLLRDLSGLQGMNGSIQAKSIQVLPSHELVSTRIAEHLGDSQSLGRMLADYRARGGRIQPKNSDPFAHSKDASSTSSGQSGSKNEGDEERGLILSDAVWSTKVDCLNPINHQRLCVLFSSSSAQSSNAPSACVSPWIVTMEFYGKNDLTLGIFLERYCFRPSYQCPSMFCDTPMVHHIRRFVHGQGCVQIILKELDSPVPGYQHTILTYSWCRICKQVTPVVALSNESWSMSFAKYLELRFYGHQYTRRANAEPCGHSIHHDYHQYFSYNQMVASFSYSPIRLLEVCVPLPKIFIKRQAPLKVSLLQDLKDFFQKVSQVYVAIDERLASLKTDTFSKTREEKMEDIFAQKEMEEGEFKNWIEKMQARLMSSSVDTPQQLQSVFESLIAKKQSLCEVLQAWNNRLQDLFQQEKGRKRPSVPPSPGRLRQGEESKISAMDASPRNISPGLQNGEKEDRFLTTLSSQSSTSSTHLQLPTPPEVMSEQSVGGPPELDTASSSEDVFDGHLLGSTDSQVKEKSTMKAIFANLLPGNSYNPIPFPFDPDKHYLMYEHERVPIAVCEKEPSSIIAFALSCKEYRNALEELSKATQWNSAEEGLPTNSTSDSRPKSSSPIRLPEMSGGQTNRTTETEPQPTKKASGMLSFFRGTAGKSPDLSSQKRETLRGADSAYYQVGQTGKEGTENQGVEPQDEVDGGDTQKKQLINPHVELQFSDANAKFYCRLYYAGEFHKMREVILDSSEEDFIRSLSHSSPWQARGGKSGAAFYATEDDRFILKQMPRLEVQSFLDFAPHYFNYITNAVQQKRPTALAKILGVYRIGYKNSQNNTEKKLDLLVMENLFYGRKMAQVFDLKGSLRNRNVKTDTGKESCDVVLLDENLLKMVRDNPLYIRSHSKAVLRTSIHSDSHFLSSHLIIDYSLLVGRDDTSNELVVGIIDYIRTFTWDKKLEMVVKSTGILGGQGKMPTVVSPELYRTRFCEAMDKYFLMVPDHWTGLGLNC
T6 sequence (P49841 whole entry): as the sequence (P49841 whole entry) above

CN1CCN(C(=O)c2ccc3cc(CCNc4ncnc5ccc(C#N)cc45)ccc3c2)CC1 [Senexin B]
Activity in the cell-based assay (WT, 8KO and 19KO cells) (CDK8/19): an order of magnitude less active
IC50 (CDK8/19; HEK293 WT; 1 h pre-treatment, then 10 ng/mL TNFα 2 h; QPCR; read-out: IC50, CXCL1 mRNA expression, WT): 68 nM
IC50 (CDK8/19; HEK293 WT; 1 h pre-treatment, then 10 ng/mL TNFα 2 h; QPCR; read-out: IC50, CXCL8 mRNA expression, WT): 81 nM
IC50 (CDK8/19; HEK293 WT; 1 h pre-treatment, then 10 ng/mL TNFα 2 h; QPCR; read-out: IC50, MYC mRNA expression, WT): 45 nM
Kd (MAP4K2): 570 nM
Kd (STK16): 2200 nM
Kd (JNK1 (MAPK8)): 7.2 µM
Kd (GSK3A): > 30000 nM
Effect on STAT1 S727 phosphorylation, serum-starved NIH 3T3 cells ([1]; serum starvation 24 h): inhibits STAT1 S727 phosphorylation
Effect on STAT1 S727 phosphorylation, NIH 3T3 cells after addition of serum ([1]; serum stimulation 1 h): only a minor effect
Effect on STAT1 S727 phosphorylation, WT 293 cells under standard conditions and serum-starved [2]: inhibits STAT1 S727 phosphorylation
Effect on serum-stimulated increase of STAT1 S727 phosphorylation, WT 293 cells ([2]; serum stimulation 1 h): only weakly affected
Effect on basal STAT1 S727 phosphorylation in rat neurons in culture [3]: did not detect any effect
Effect on basal STAT1 S727 phosphorylation in all the tested tumor cell lines [4]: inhibited
Kd (CDK8 [5]; 11-point 3-fold serial dilution, duplicate, read-out: Kd for the inhibition of nucleotide binding, CDK8): 59 nM
Kd (PIKFYVE): 14 µM
IC50 (CDK8 [6]; read-out: IC50, CXCL1 mRNA expression, 19KO): 70 nM
IC50 (CDK8 [6]; read-out: IC50, CXCL8 mRNA expression, 19KO): 71 nM
IC50 (CDK8 [6]; read-out: IC50, MYC mRNA expression, 19KO): 51 nM

Cc1n[nH]c2ncc(C(=O)N3CCC[C@H]3c3ccc(Cl)cc3)cc12 [Cmpd4]
Toxicity in dechorionated AB zebrafish larvae [7]: severe toxicity
Toxicity in TU strain zebrafish embryos [8]: very strong toxicity
IC50 (CDK8/19; read-out: IC50, CXCL1 mRNA expression, WT; HEK293 WT; 1 h pre-treatment, then 10 ng/mL TNFα 2 h; QPCR): 1.8 nM
IC50 (CDK8/19; read-out: IC50, CXCL8 mRNA expression, WT; HEK293 WT; 1 h pre-treatment, then 10 ng/mL TNFα 2 h; QPCR): 2.1 nM
IC50 (CDK8/19; read-out: IC50, MYC mRNA expression, WT; HEK293 WT; 1 h pre-treatment, then 10 ng/mL TNFα 2 h; QPCR): 2.4 nM
Kd (GSK3A): 450 nM
Kd (GSK3B): 190 nM
IC50 (GSK3β): ~400 nM and 396 nM
Weight loss in mice [9]: detectable weight loss
Toxicity in rats (rats): multiple and striking toxicities, including lethality
Toxicity in dogs (dogs): multiple and striking toxicities, including lethality
Kd (CDK19 [10]): 94 nM
Kd (CDK8 [5]): 115 nM
IC50 (CDK19 [11]; IC50, CXCL1 mRNA expression): 2.4 nM
IC50 (CDK19 [11]; IC50, CXCL8 mRNA expression): 1.9 nM
IC50 (CDK19 [11]; IC50, MYC mRNA expression): 1.4 nM
IC50 (CDK8 [6]; IC50, CXCL1 mRNA expression, 19KO): 3.2 nM
IC50 (CDK8 [6]; IC50, CXCL8 mRNA expression, 19KO): 3.1 nM
IC50 (CDK8 [6]; IC50, MYC mRNA expression, 19KO): 1.9 nM

Reference: article PMC6912361, “Systemic Toxicity Reported for CDK8/19 Inhibitors CCT251921 and MSC2530818 Is Not Due to Target Inhibition” (Cells, 2019)
